Reference: ChEMBL document CHEMBL5579807, “Development of STING degrader with double covalent ligands” (Bioorg Med Chem Lett, 2024)
Values belong to the compound of their own block, whether it stands above or below them. Active and inactive are the calls of the source. The calls are words filed in the database; no cut-off is given here.

Assays:
Assay type in all cases: cell-based
[1] = molecular target: Stimulator of interferon genes protein (Homo sapiens) (UniProt Q86WV6); assay: Inhibtion of STING in 293-Dual hSTING-R232 cells co-expressing interferon beta luciferase reporter assessed as inhibition of interferon response incubated for 16 hrs in presence of cGAMP by luminescence based luciferase gene reporter assay; details: dose 1-30 µM
[2] = molecular target: T1, E3 ubiquitin-protein ligase RNF126/Stimulator of interferon genes protein (Homo sapiens) (UniProt Q86WV6+Q9BV68); assay: PROTAC activity at RNF126/STING in human THP-1 cells assessed as induction of STING degradation at 3 uM incubated for 18 hrs in the presence of MLN7243 by Western blot analysis
[3] = molecular target: T1, E3 ubiquitin-protein ligase RNF126/Stimulator of interferon genes protein (Homo sapiens); assay: PROTAC activity at RNF126/STING in human THP-1 cells assessed as induction of STING degradation at 10 uM incubated for 24 hrs by Western blot analysis
[4] = molecular target: T1, E3 ubiquitin-protein ligase RNF126/Stimulator of interferon genes protein (Homo sapiens); assay: PROTAC activity at RNF126/STING in human THP-1 cells assessed as induction of STING degradation at 3 uM incubated for 18 hrs in the presence of MG132 by Western blot analysis
[5] = molecular target: T1, E3 ubiquitin-protein ligase RNF126/Stimulator of interferon genes protein (Homo sapiens); assay: PROTAC activity at RNF126/STING in human THP-1 cells assessed as induction of STING degradation at 3 to 30 uM incubated for 6 to 48 hrs by Western blot analysis; details: dose 3-30 µM, time 6-48 hrs
[6] = molecular target: T2, Protein cereblon/Stimulator of interferon genes protein (Homo sapiens) (UniProt Q96SW2+Q86WV6); assay: PROTAC activity at CRBN/STING in human THP-1 cells assessed as induction of STING degradation at 3 to 30 uM incubated for 6 hrs by Western blot analysis; details: dose 3-30 µM
[7] = molecular target: T2, Protein cereblon/Stimulator of interferon genes protein (Homo sapiens); assay: PROTAC activity at CRBN/STING in human THP-1 cells assessed as induction of STING degradation incubated for 24 to 48 hrs by Western blot analysis; details: dose 3-30 µM, time 24-48 hrs
[8] = molecular target: T1, E3 ubiquitin-protein ligase RNF126/Stimulator of interferon genes protein (Homo sapiens); assay: PROTAC activity at RNF126/STING in human THP-1 cells assessed as induction of STING degradation upto 30 uM incubated for 24 hrs by Western blot analysis

T1 sequence (Q86WV6 whole entry, looked up): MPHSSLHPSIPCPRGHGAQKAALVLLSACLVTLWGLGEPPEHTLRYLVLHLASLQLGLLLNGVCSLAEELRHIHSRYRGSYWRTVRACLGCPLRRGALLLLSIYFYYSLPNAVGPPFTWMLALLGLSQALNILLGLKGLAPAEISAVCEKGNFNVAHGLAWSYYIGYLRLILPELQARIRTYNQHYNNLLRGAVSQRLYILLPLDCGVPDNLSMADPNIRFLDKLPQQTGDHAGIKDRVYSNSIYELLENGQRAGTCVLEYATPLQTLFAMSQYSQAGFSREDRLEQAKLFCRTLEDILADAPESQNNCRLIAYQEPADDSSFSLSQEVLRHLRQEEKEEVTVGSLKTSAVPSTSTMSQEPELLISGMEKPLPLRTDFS
T1 sequence (Q9BV68 whole entry, looked up): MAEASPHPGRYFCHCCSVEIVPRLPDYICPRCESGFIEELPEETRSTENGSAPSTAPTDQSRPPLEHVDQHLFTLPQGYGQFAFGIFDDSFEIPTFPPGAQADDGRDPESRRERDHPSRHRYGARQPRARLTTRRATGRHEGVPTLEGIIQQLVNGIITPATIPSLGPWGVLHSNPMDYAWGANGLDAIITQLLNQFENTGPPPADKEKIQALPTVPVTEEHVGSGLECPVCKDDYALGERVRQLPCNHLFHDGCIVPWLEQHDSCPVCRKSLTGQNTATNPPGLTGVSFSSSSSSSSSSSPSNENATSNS
T2 sequence (Q86WV6 whole entry, looked up): as the sequence (Q86WV6 whole entry, looked up) above
T2 sequence (Q96SW2 whole entry, looked up): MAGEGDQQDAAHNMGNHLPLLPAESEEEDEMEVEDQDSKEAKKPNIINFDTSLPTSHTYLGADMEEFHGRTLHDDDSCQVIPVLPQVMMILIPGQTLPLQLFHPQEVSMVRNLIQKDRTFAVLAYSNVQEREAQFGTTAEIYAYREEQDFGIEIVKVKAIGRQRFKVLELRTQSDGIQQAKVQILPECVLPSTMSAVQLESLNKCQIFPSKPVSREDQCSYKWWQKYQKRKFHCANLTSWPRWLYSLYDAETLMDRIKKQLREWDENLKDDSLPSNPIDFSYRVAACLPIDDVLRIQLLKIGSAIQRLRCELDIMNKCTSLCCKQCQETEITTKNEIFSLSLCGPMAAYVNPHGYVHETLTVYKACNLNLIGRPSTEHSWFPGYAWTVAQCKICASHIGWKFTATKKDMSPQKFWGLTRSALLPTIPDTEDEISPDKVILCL
Chain of Stimulator of interferon genes protein (Homo sapiens) (Q86WV6 whole entry): as the sequence (Q86WV6 whole entry, looked up) above

inhibition [1]: Dose-Dependent Effect
Activity [2]: inactive
Activity [3]: Active
Activity [4]: inactive
Activity [5]: Active
SMILES: COc1ccc(C(=O)/C=C/C(=O)N2CCN(c3ccc(NC(=O)c4ccc([N+](=O)[O-])o4)cc3)CC2)cc1

Activity [6]: inactive
Activity [7]: Dose-Dependent Effect
SMILES: O=C(/C=C/C(=O)Nc1ccc(NC(=O)c2ccc([N+](=O)[O-])o2)cc1)NCCCCCCNc1cccc2c1C(=O)N(C1CCC(=O)NC1=O)C2=O (stereo not drawn)

Activity [8]: Active
SMILES: COc1ccc(C(=O)/C=C/C(=O)Nc2ccc(NC(=O)c3ccc([N+](=O)[O-])o3)cc2)cc1
